Square brackets hold non-standard residues; d marks the D form. Peptide text beside a SMILES is read from it. AEEA = NCCOCCOCC(=O)O
Columns and labels:
HSV-1 [1] = assay: Attachment (adsorption) assay in TIGKs cells; assay type: cell-based, herpes simplex virus type 1; details: 15 μg/ml present only during infection, 2 h at 4°C, 48 h
Experimental: HSV-1 stocks were generated by infecting Vero E6 cells. Cells were lysed at 48 h p.i. by two freeze-thaw cycles. The virus containing fluid was aliquoted and stored at −80°C. A control Vero E6 cell lysate from mock-infected cells was prepared in the same manner as the virus stock. Virus yield was assessed by virus titration on fully confluent Vero E6 cells in 96-well plates, according to the method of Reed & Muench ([32]). Plates were incubated at 37°C for 48 h and the occurrence of a cytopathic effect was scored using an inverted microscope, and TCID50 (50% tissue culture infection dose) was calculated.
TIGKs cells were seeded in 12-well plates and cultured for 48 h. Next, keratinocytes were infected with HSV-1 (TCID50 400 /ml) or treated with mock in the presence of DAL-PEG-LK6 or CPP1-PEG-LK6 (15 μg/ml) for 2 h at 4°C. […] Next, samples were collected, and viral yield was determined using titration and qPCR.
Viral DNA was isolated from the conditioned media or the apical washes of inserts (OTG model) using Viral DNA/RNA Isolation Kit (A&A Biotechnology). The virus yield assessed by quantitative real-time PCR (qPCR). […] DNA quantification standards were prepared. […] The number of copies per mL was estimated after the concentration of linearized DNA was assessed spectrophotometrically.

[2] = Azure A metachromatic assay; assay type: binding; details: HS 0.2 mg/ml, Azure A 23 μg/ml, peptide 1–300 μg/ml, 15 min at RT
Experimental: The possible interaction of peptide conjugate with HS was investigated by incubation the mixtures containing a constant concentration of HS (0.2 mg/ml, Sigma Aldrich) and solutions of CPP1-PEG-LK6 at different concentrations (1–300 μg/ml). Next, the mixtures were shaken for 15 min at room temperature. […] Azure A, a cationic dye when binding to heparin and/or HS changes its adsorption spectrum ([35]).

[3] = Confocal colocalization of CFS-labelled conjugate with HS on TIGKs cells; assay type: cell-based; details: CFS-labelled conjugate 15 μg/ml, 30 min at 4°C, average ± SEM
Experimental: To examine the colocalization of HS on the cell surface with tested peptide conjugate we treated TIGKs cells with CFS stained CPP1-PEG-LK6 (15 μg/ml) for 30 min at 4°C. Then cells were washed with cold PBS and fixed with 3.7% formaldehyde for 30 min. Afterwards, TIGKs cells were stained with primary antibodies (1:100; rat anti-HS, Abcam) for 2 h at room temperature. The cells were then incubated with secondary antibodies (1:1,000; goat anti-rat conjugated with Alexa Fluor 568, Cell Signaling) and with Alexa Fluor 633 Phalloidin. Next, the coverslips were placed on glass slide with ProLong Antifade Mounting Medium with DAPI and visualized using a confocal laser scanning microscope (LSM 880; Zeiss).

HSV-1 [4] = assay: Antiviral activity in 3D organotypic model of human gingiva (OTG); assay type: cell-based, herpes simplex virus type 1
Experimental: Protocol was described previously ([34]). Briefly, to prepare 3D cultures, 150,000 gingival fibroblasts suspended in 10% FBS in DMEM were mixed with 2.4 ml of ice-cold Matrigel® (Corning) (final concentration 7 mg/ml) and placed in the middle of 12-well cell culture inserts (Greiner). Three days later, 1 × 10^6 TIGK cells suspended in EPM1 were added to the top of the insert. On the ninth day after the start of the procedure, the old culture medium was removed and EPM2 was added to the bottom of the insert. The epithelial layer on the top was exposed to the air, which promotes epithelial differentiation and then stratification. About 8–10 days after air-liquid interphase, 3D cultures of gingiva were used for further experiments.
The apical surface of OTG model was washed three times with PBS and then inoculated with 100 μl of viral stock (TCID50 400 /ml) in the presence of DAL-PEG-LK6 or CPP1-PEG-LK6 (15 μg/ml) for 2 h at 4°C. Following incubation, the unbound HSV-1 was removed by washing with PBS for 10 min at 37°C, and the OTG cultures were maintained at an air-liquid interface for the rest of the experiment. To determine viral yield, 120 μl of PBS was applied to the apical surface of the OTG, and harvested for DNA isolation after 10 min of incubation at 37°C.
Briefly, cell inserts were fixed in 10% formaldehyde at 4°C for 1 h. After embedding in paraffin, 3D cultures were cut into 5 μm sections and stained with H&E solution. For immunohistochemical analysis, slides were incubated for 1 h at room temperature in blocking buffer (5% normal goat serum, 0.1% saponin in PBS) and stained with primary antibodies anti-HSV-1 (1:100, 1% normal goat serum, 0.1% saponin in PBS; Abcam) and secondary antibodies: goat anti-rabbit conjugated with Alexa Fluor 488 (1:2000; Cell Signaling). Finally, cell nuclei were stained with ProLong Antifade Mounting Medium with DAPI. Slides were visualized with EVOS FL Cell Imaging System (Thermo Fisher Scientific).
Viral DNA was isolated from the conditioned media or the apical washes of inserts (OTG model) using Viral DNA/RNA Isolation Kit (A&A Biotechnology). The virus yield assessed by quantitative real-time PCR (qPCR). The reaction was carried out in a CFX96 Touch Real-Time PCR Detection System (Bio-Rad), in a 10 μl reaction mixture consisting of TaqMan^TM Fast Advanced Master Mix, TaqMan^TM Microbe Detection assay against HSV-1 (Vi04230116_s1) and 1 μl of viral DNA. The temperature profile was 10 s at 95°C, followed by 40 cycles of 3 s at 95°C and 20 s at 60°C. DNA quantification standards were prepared. In summary, a fragment of viral DNA was amplified using the primers listed above and cloned into the pTZ57R/T plasmid using the InsTAclone PCR cloning kit. The plasmid was propagated in E. coli, purified with the GeneJet Plasmid Miniprep Kit, and digested with the EcoR1 restriction enzyme. The number of copies per mL was estimated after the concentration of linearized DNA was assessed spectrophotometrically.

SMILES: CC[C@H](C)[C@H](NC(=O)COCCOCCNC(=O)[C@@H](NC(=O)[C@H](CC(C)C)NC(=O)[C@H](Cc1ccc(O)cc1)NC(=O)[C@@H](NC(=O)[C@H](Cc1ccccc1)NC(=O)[C@@H]1CCCN1)C(C)C)[C@@H](C)CC)C(=O)N[C@@H](CCCCN)C(=O)N[C@@H](CCCCN)C(=O)N[C@H](C(=O)N[C@@H](CC(C)C)C(=O)N[C@@H](CO)C(=O)N[C@@H](CCCCN)C(=O)N[C@H](C(=O)N[C@@H](CCCCN)C(=O)N[C@@H](CCCCN)C(=O)N[C@@H](CC(C)C)C(=O)N[C@@H](CC(C)C)C(=O)N[C@@H](CCCCN)C(N)=O)[C@@H](C)CC)[C@@H](C)CC [CPP1-PEG-LK6] (H-PFVYLI[AEEA]IKKILSKIKKLLK-NH2)
- decrease in viral yield, attachment assay, qPCR (HSV-1 [1]; Figure 2D): ~95%
- decrease in viral titer, attachment assay, titration (HSV-1 [1]; Figure 2E): ~97%
- interaction with heparan sulfate (Azure A release, absorbance at 630 nm) [2]: releases Azure A from HS
- colocalization with HS, Manders overlap coefficient [3]: 0.93 ± 0.01
- colocalization with HS, Pearson's correlation [3]: 0.82 ± 0.02
- reduction of viral yield in OTG at 48 h (HSV-1 [4]; 15 μg/ml during inoculation 2 h at 4°C, apical washes, qPCR, 48 h post-viral inoculation): 3 logs
- reduction of viral yield in OTG at 72 h (HSV-1 [4]; 15 μg/ml during inoculation 2 h at 4°C, apical washes, qPCR, 72 h post-viral inoculation): 2 logs
- morphology of epithelial cells in OTG (H&E) (HSV-1 [4]; 15 μg/ml, H&E stained sections, Figure 5A): no changes in the morphology of epithelial cells
- HSV-1-positive cells in OTG sections (immunohistology) (HSV-1 [4]; 15 μg/ml, anti-HSV-1 immunofluorescence, Figure 5B): absent

— publication PMC11215077, “Antiviral activity of temporin-1CEb analogues against gingival infection with herpes simplex virus type 1” (Frontiers in Oral Health, 2024)
